Results from patent US20240335442A1 (Eurofarma Laboratórios S.A., priority 2021, published 2024).

Legend:
[1] = target: human sodium channel Nav 1.7 (Homo sapiens (Human), UniProt Q15858); test: Automated whole-cell voltage-clamp (ScreenPatch 384P), Nav 1.7 sodium current, Protocol 2; assay type: cell-based; conditions: read-out: Nav1.7 IC50
Experimental: (§1) Biological assays were performed on Chinese hamster ovary (CHO) cells expressing the human sodium channels Nav 1.8 and Nav 1.7 stably.
(§2) The experimental voltage-clamp protocol using the whole cell configuration was established on the automated ScreenPatch® 384P platform (SP384PE, Nanion Technologies, Livingston, NJ) and recording of the results was performed with a Nanion 384-well Patch Clamp chip (NPC) (Nanion Technologies, Livingston, NJ).
(§3) Compounds of Formula (I), were diluted in eight concentrations in the extracellular solution composed of physiological saline, buffered with HEPES (mM): NaCl, 137; KCl, 4; CaCl2, 3.8; MgCl2, 1; HEPES, 10; Glucose, 10; pH 7.4. The […], 50; CsF, 90; MgCl2, 5; EGTA, 5; HEPES, 10; pH 7.2. The duration of exposure of each compound with the cells expressing Nav 1.7 or Nav 1.8 was at least five minutes and the assays were performed at room temperature.
(§4) The measurements of the sodium currents of Nav 1.8 and Nav 1.7 were obtained using the voltage protocols described below: • Protocol 1: A holding voltage of-90 mV was established followed by a voltage phase of 200 ms to-120 mV, followed by a voltage step of 10 mV for 1 second for Nav 1.8 or 0 mV for Nav 1.7, followed by a step of-100 mV for 20 ms, followed by a step of 20 ms for 10 mV for Nav 1.8 or 0 mV for Nav 1.7 (TP1A) before returning to the holding voltage of-90 mV. • Protocol 2: A holding voltage of-100 mV was established followed by an inactivation voltage step at −40 mV for 8 seconds, followed by a −100 mV step for 20 ms, followed by a 20 ms step for 10 mV for Nav 1.8 or 0 mV for Nav 1.7 (TP1A) before returning to the holding voltage of-100 mV.
(§5) Protocols were repeated at a frequency of 0.1 Hz (Protocol 1) or 0.05 Hz (Protocol 2) and current amplitude was quantified over the TP1A phase log. The variation in the peak amplitude of the current was evaluated according to the Formula described below, after exposure of the cells expressing the channels, at each concentration of the different compounds:
(§6) where ITP1A,basal, and ITP1A,molecule represent the entry peaks of sodium currents into TP1A prior to exposure to the compound and in the presence of the compound, respectively.
(§7) The decrease in peak current amplitude, after exposure of the cells to the compounds, was used to calculate the percent relative blocking of the channels relative to the positive control according to the Formula below: […]
(§8) where % V and % CP represent the averages of the values of current inhibition with a vehicle (DMSO) and positive controls, respectively. The sodium currents of the positive control were considered as 100%.
(§9) where [Test] represents the concentration of the evaluated molecule, IC50 is the concentration of the compound that generates half of the maximum inhibition, N is the Hill's coefficient and % Block′ is the percentage of the sodium channel current (Nav 1.8 and Nav 1.7) inhibited at each concentration of the evaluated molecule. Data were obtained by non linear least squares regression with XL fit for Excel (Microsoft, Redmond, WA).
(§10) Compounds were tested in at least one assay to obtain the IC50 value.

[2] = target: human sodium channel Nav 1.8 (Homo sapiens (Human), UniProt Q9Y5Y9); test: Automated whole-cell voltage-clamp (ScreenPatch 384P), Nav 1.8 sodium current, Protocol 2; assay type: cell-based; conditions: read-out: Nav1.8 IC50
Experimental: as §1, §2, §3, §4, §5, §6, §7, §8, §9, §10

human sodium channel Nav 1.7, sequence (Q15858 whole entry): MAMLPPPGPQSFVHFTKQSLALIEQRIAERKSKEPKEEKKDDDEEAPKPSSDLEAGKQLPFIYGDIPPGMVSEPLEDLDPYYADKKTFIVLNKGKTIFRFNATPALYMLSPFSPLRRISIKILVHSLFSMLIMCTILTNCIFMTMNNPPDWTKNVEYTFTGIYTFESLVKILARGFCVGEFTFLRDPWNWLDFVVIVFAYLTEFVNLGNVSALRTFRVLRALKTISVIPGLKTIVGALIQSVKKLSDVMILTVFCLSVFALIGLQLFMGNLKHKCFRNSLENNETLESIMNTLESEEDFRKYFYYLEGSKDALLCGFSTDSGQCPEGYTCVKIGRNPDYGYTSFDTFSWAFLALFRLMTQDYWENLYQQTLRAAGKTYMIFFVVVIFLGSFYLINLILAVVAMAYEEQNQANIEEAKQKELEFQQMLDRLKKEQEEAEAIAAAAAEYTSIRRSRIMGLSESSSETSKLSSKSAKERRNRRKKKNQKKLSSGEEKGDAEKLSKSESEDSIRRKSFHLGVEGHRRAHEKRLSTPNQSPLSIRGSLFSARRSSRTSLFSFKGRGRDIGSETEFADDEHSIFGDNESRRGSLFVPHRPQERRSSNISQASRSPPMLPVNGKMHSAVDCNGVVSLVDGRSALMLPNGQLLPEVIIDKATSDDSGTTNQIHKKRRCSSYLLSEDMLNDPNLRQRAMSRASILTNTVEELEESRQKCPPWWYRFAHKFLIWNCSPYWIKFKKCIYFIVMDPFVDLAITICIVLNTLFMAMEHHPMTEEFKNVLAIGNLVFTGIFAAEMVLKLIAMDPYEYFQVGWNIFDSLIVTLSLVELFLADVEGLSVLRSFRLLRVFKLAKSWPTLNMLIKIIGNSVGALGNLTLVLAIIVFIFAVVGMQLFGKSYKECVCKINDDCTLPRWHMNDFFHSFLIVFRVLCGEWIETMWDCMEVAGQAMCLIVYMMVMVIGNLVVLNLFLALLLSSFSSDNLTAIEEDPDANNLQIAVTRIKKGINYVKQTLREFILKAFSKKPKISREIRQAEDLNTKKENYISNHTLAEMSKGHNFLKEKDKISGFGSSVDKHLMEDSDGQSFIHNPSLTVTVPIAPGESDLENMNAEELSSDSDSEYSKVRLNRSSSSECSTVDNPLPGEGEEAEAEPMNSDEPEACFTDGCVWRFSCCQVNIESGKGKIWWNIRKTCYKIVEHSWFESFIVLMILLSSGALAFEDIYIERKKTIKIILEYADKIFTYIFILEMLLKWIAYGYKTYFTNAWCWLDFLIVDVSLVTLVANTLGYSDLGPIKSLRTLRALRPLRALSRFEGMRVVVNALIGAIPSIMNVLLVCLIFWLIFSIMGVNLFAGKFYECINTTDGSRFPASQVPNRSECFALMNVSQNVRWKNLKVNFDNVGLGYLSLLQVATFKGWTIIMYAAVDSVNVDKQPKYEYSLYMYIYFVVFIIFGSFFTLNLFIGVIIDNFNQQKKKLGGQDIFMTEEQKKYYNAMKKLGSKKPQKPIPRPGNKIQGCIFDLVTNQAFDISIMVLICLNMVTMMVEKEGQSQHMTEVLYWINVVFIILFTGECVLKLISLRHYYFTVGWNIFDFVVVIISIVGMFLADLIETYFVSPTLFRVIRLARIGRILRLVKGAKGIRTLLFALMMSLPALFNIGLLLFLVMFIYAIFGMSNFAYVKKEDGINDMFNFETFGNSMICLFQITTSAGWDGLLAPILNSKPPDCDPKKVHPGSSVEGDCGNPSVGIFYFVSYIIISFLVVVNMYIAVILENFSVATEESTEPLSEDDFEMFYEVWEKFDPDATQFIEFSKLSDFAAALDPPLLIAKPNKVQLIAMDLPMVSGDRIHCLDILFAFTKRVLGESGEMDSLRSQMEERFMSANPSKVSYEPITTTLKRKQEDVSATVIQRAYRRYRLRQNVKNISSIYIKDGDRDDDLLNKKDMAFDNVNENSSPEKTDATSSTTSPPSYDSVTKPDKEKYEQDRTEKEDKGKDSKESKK
human sodium channel Nav 1.8, sequence (Q9Y5Y9 whole entry): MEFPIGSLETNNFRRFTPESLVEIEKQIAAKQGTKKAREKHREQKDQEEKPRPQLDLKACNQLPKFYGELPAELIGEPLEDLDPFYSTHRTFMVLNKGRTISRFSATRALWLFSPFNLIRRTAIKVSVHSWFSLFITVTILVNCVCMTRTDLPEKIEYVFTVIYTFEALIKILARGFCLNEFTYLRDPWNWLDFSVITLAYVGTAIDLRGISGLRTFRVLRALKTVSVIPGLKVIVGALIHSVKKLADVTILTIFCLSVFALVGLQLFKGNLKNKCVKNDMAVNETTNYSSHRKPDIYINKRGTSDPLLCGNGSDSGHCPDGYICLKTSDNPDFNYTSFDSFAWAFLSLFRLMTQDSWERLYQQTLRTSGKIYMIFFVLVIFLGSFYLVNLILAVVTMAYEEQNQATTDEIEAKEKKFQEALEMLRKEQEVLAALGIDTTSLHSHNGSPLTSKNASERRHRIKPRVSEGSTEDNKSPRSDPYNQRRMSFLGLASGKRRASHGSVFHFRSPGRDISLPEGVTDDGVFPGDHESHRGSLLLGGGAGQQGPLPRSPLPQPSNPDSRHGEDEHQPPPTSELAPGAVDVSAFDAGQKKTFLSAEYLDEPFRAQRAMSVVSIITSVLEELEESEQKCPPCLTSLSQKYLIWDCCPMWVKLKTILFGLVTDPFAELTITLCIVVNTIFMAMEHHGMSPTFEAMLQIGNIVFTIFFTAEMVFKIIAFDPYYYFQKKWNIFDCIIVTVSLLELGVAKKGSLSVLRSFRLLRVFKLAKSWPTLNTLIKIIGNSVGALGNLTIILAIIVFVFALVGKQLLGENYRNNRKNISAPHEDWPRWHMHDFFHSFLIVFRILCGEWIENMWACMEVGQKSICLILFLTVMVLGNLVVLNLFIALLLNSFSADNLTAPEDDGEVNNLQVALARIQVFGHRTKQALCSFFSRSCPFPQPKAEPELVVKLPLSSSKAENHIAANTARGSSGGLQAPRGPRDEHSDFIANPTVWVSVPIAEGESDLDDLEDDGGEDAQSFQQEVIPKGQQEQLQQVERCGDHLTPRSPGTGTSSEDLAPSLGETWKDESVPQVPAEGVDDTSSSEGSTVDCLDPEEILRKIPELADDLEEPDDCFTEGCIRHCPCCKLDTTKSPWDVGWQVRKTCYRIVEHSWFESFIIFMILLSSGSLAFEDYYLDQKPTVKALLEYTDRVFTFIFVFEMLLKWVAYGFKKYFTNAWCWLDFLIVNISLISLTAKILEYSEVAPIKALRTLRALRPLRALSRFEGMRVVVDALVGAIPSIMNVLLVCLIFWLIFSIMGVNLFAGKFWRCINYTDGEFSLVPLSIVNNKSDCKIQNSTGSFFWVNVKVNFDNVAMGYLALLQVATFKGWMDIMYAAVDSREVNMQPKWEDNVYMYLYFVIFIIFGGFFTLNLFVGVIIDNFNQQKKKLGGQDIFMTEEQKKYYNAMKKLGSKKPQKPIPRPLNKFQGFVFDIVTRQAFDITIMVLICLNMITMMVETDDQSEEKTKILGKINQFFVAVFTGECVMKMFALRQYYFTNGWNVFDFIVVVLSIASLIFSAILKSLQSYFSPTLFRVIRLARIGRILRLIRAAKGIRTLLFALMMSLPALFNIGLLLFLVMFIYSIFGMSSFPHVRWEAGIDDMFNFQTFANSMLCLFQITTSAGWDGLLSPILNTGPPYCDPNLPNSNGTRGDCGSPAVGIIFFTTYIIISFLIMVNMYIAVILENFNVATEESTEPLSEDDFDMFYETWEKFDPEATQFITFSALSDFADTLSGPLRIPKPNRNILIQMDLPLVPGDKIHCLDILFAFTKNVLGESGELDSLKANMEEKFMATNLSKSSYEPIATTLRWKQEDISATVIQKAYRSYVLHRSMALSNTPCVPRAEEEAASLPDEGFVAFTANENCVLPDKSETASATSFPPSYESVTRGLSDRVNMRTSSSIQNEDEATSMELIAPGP

| IC50 [1] [nM] | IC50 [2] [nM] | SMILES |
| --- | --- | --- |
| 70.4 | 42.6 | COc1cc(/C=N/NC(=O)c2cncc(-c3ccc(OC4CC4)cc3)n2)cc(OC)c1 [Compound 88, (E)-6-(4-cyclopropoxyphenyl)-N′-(3,5-dimethoxybenzylidene)pyrazine-2-carbohydrazide] |
| 212 | 149 | COc1cc(/C=N/NC(=O)c2cncc(-c3ccc(OC4CCCCC4)cc3)n2)cc(OC)c1 [Compound 89, (E)-6-(4-(cyclohexyloxy)phenyl)-N′-(3,5-dimethoxybenzylidene)pyrazine-2-carbohydrazide] |
| > 10000 | > 1000 | COc1ccc(-c2nccnc2C(=O)N/N=C/c2cc(OC)cc(OC)c2)cc1 [Compound 90, (E)-N′-(3,5-dimethoxybenzylidene)-3-(4-methoxyphenyl)pyrazine-2-carbohydrazide] |
| > 10000 | > 1000 | COc1ccc(-c2cnc(C(=O)N/N=C/c3cc(OC)cc(OC)c3)cn2)cc1 [Compound 91, (E)-N′-(3,5-dimethoxybenzylidene)-5-(4-methoxyphenyl)pyrazine-2-carbohydrazide] |
| > 10000 | > 1000 | COc1cc(/C=N/NC(=O)c2cncc(-c3ccc(F)cc3)n2)cc(OC)c1 [Compound 92, (E)-N′-(3,5-dimethoxybenzylidene)-6-(4-fluorophenyl)pyrazine-2-carbohydrazide] |
| > 10000 | > 1000 | COc1cc(/C=N/NC(=O)c2cncc(-c3cccc(Cl)c3)n2)cc(OC)c1 [Compound 93, (E)-6-(3-chlorophenyl)-N′-(3,5-dimethoxybenzylidene)pyrazine-2-carbohydrazide] |
| > 10000 | > 1000 | COc1cc(/C=N/NC(=O)c2cncc(-c3cccc(F)c3)n2)cc(OC)c1 [Compound 94, (E)-N′-(3,5-dimethoxybenzylidene)-6-(3-fluorophenyl)pyrazine-2-carbohydrazide] |
| > 10000 | > 1000 | COc1cc(/C=N/NC(=O)c2cncc(-c3ccccc3Cl)n2)cc(OC)c1 [Compound 95, (E)-6-(2-chlorophenyl)-N′-(3,5-dimethoxybenzylidene)pyrazine-2-carbohydrazide] |
| > 10000 | 887 | COc1cc(/C=N/NC(=O)c2cncc(-c3ccc(C)cc3)n2)cc(OC)c1 [Compound 96, (E)-N′-(3,5-dimethoxybenzylidene)-6-(p-tolyl)pyrazine-2-carbohydrazide] |
| > 10000 | 394 | COc1cc(/C=N/NC(=O)c2cncc(-c3ccccc3)n2)cc(OC)c1 [Compound 97, (E)-N′-(3,5-dimethoxybenzylidene)-6-phenylpyrazine-2-carbohydrazide] |
| > 10000 | > 1000 | COc1cc(/C=N/NC(=O)c2cncc(-c3ccccc3F)n2)cc(OC)c1 [Compound 98, (E)-N′-(3,5-dimethoxybenzylidene)-6-(2-fluorophenyl)pyrazine-2-carbohydrazide] |
| > 10000 | 459 | COc1cc(/C=N/NC(=O)c2cncc(-c3ccccc3OC)n2)cc(OC)c1 [Compound 102, (E)-N′-(3,5-dimethoxybenzylidene)-6-(2-methoxyphenyl)pyrazine-2-carbohydrazide] |
| > 10000 | > 1000 | COc1cc(/C=N/NC(=O)c2cncc(-c3ccncc3)n2)cc(OC)c1 [Compound 103, (E)-N′-(3,5-dimethoxybenzylidene)-6-(pyridin-4-yl)pyrazine-2-carbohydrazide] |
| > 10000 | > 1000 | COc1cc(/C=N/NC(=O)c2cncc(-c3cccnc3)n2)cc(OC)c1 [Compound 104, (E)-N′-(3,5-dimethoxybenzylidene)-6-(pyridin-3-yl)pyrazine-2-carbohydrazide] |
| 44.6 | 33.7 | CCOc1ccc(-c2cncc(C(=O)N/N=C/c3cc(F)cc(OC)c3)n2)c(OC)c1 [Compound 105, (E)-6-(4-ethoxy-2-methoxypehnyl)-N′-(3-fluoro-5-methoxybenzylidene)pyrazine-2-carbohydrazide] |
| 83 | 90.2 | CCCOc1cc(/C=N/NC(=O)c2cncc(-c3ccc(OCC)cc3OC)n2)cc(OC)c1 [Compound 106, (E)-6-(4-ethoxy-2-methoxyphenyl)-N′-(3-methoxy-5-propoxybenzylidene)pyrazine-2-carbohydrazide] |
| 5160 | 1000 | CCOc1ccc(-c2cncc(C(=O)N/N=C/c3cc(OC)c(F)c(OC)c3)n2)c(OC)c1 [Compound 107, (E)-6-(4-ethoxy-2-methoxyphenyl)-N′-(4-fluoro-3,5-dimethoxybenzylidene)pyrazine-2-carbohydrazide] |
| 30.8 | 17.7 | CCOc1ccc(-c2cncc(C(=O)N/N=C/c3cccc(OC)c3)n2)c(OC)c1 [Compound 108, (E)-6-(4-ethoxy-2-methoxyphenyl)-N′-(3-methoxybenzylidene)pyrazine-2-carbohydrazide] |
| 566 | 149 | COc1cc(/C=N/NC(=O)c2cncc(-c3ccc(OC)cc3C)n2)cc(OC)c1 [Compound 109, (E)-N′-(3,5-dimethoxybenzylidene)-6-(4-methoxy-2-methylphenyl)pyrazine-2-carbohydrazide] |
| 541 | 119 | CCOc1ccc(-c2cncc(C(=O)N/N=C/c3cccc(OC)c3)n2)c(Cl)c1 [Compound 111, (E)-6-(2-chloro-4-ethoxyphenyl)-N′-(3-methoxybenzylidene)pyrazine-2-carbohydrazide] |
| 2350 | 966 | COc1cc(/C=N/NC(=O)c2cncc(-c3ccc(OC)cc3OC(F)(F)F)n2)cc(OC)c1 [Compound 112] |
| 1000 | 433 | CCCc1ccc(-c2cncc(C(=O)N/N=C/c3cc(OC)cc(OC)c3)n2)cc1 [Compound 113, (E)-N′-(3,5-dimethoxybenzylidene)-6-(4-propylphenyl)pyrazine-2-carbohydrazide] |
| > 10000 | > 1000 | COc1cc(/C=N/NC(=O)c2cncc(-c3ccccc3N3CCOCC3)n2)cc(OC)c1 [Compound 114] |
| 666 | 332 | COc1cc(/C=N/NC(=O)c2cncc(-c3ccc(CC(C)C)cc3)n2)cc(OC)c1 [Compound 116, (E)-N′-(3,5-dimethoxybenzylidene)-6-(4-isobutylphenyl)pyrazine-2-carbohydrazide] |
| 737 | 238 | CCOc1ccc(-c2cncc(C(=O)N/N=C/c3cc(OC)cc(OC)c3)n2)cc1Cl [Compound 117, (E)-6-(3-chloro-4-ethoxyphenyl)-N′-(3,5-dimethoxybenzylidene)pyrazine-2-carbohydrazide] |
| 416 | 79.9 | CCSc1ccc(-c2cncc(C(=O)N/N=C/c3cc(OC)cc(OC)c3)n2)cc1 [Compound 118, (E)-N′-(3,5-dimethoxybenzylidene)-6-(4-(ethylthio)phenyl)pyrazine-2-carbohydrazide] |
| > 10000 | 128 | CCOc1ccc(-c2cncc(C(=O)N/N=C/c3cccc(OC)c3)n2)c(F)c1 [Compound 119, (E)-6-(4-ethoxy-2-fluorophenyl)-N′-(3-methoxybenzylidene)pyrazine-2-carbohydrazide] |
| 116 | 133 | CCOc1ccc(-c2cncc(C(=O)N/N=C/c3cccc(OC)c3)n2)c(C(F)(F)F)c1 [Compound 120, (E)-6-(4-ethoxy-2-(trifluoromethyl)phenyl)-N′-(3-methoxybenzylidene)pyrazine-2-carbohydrazide] |
| 499 | 117 | COc1cc(/C=N/NC(=O)c2cncc(-c3ccc(OC)cc3F)n2)cc(OC)c1 [Compound 121, (E)-N′-(3,5-dimethoxybenzylidene)-6-(2-fluoro-4-methoxyphenyl)pyrazine-2-carbohydrazide] |
| 5120 | > 1000 | COc1cc(/C=N/NC(=O)c2cncc(-c3ccc(OC)cc3Cl)n2)cc(OC)c1 [Compound 122] |
